Test results: patent US10597388B2, “Pyridazinone herbicides” (FMC CORPORATION, priority 2014, dated 2020)

Experiments:
Format in all cases: in vivo
[1] = test system: waterhemp_RES2 (ALS & HPPD resistant common waterhemp, Amaranthus rudis); assay: Test E greenhouse herbicide test, postemergence
In short: (§1)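 Postemergence spray on potted plants, 1–4 leaves, 2–18 cm; greenhouse 14–21 d; visual rating vs controls, 0 (no effect) to 100 (complete control).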

[2] = test system: waterhemp_RES1 (ALS & Triazine resistant common waterhemp, Amaranthus rudis); assay: Test E greenhouse herbicide test, postemergence
In short: as §1

[3] = test system: horseweed (Conyza canadensis); assay: Test E greenhouse herbicide test, pre- and postemergence
In short: (§2)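 Scores (0–100, visual, vs controls) reflect greenhouse growth of 14 to 21 d after treatment. Application was pre-emergence to silt loam or post-emergence at the 1- to 4-leaf stage.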

[4] = test system: surinam grass (Brachiaria decumbens); assay: as above; conditions: Preemergence
In short: as §2

[5] = test system: beggarticks (hairy beggarticks, Bidens pilosa); assay: as above
In short: as §2

kochia (Kochia scoparia) = assay: as above
In short: as §2

[6] = test system: crabgrass, large (large crabgrass, Digitaria sanguinalis); assay: as above; conditions: Preemergence
In short: as §2

[7] = test system: nightshade (eastern black nightshade, Solanum ptycanthum); assay: as above; conditions: Preemergence
In short: as §2

[8] = test system: ragweed (common ragweed, Ambrosia elatior); assay: as above
In short: as §2

[9] = test system: sandbur (southem sandbur, Cenchrus echinatus); assay: as above
In short: as §2

[10] = test system: panicum, fall (fall panicum, Panicum dichotomiflorum); assay: as above
In short: as §2

[11] = test system: field bindweed (Convolvulus arvensis); assay: as above
In short: as §2

[12] = test system: crabgrass, Brazilian (Brazilian crabgrass, Digitaria horizontalis); assay: as above
In short: as §2

[13] = test system: goosegrass (Eleusine indica); assay: as above; conditions: Preemergence
In short: as §2

[14] = test system: waterhemp (common waterhemp, Amaranthus rudis); assay: as above
In short: as §2

[15] = test system: foxtail, giant (giant foxtail, Setaria faberii); assay: as above; conditions: Preemergence
In short: as §2

[16] = 31 g ai/ha, visual, scale 0 no effect to 100 complete control
[17] = 62 g ai/ha, scale 0 to 100 (0 no effect, 100 complete control)
[18] = 125 g ai/ha, scale 0 to 100 (0 no effect, 100 complete control)
[19] = 250 g ai/ha, scale 0 to 100 (0 no effect, 100 complete control)
[20] = 62 g ai/ha, Postemergence, scale 0 to 100 (0 no effect, 100 complete control)
[21] = 62 g ai/ha, Preemergence, scale 0 to 100 (0 no effect, 100 complete control)
[22] = 125 g ai/ha, Postemergence, scale 0 to 100 (0 no effect, 100 complete control)
[23] = 125 g ai/ha, Preemergence, scale 0 to 100 (0 no effect, 100 complete control)
[24] = 250 g ai/ha, Postemergence, scale 0 to 100 (0 no effect, 100 complete control)
[25] = Postemergence, 31 g ai/ha, visual, scale 0 no effect to 100 complete control
[26] = Preemergence, 31 g ai/ha, scale 0 to 100, 0 no effect, 100 complete control
[27] = Preemergence, 250 g ai/ha, visual, scale 0 no effect to 100 complete control
[28] = 31 g ai/ha, scale 0 to 100, 0 no effect, 100 complete control
[29] = 250 g ai/ha, visual, scale 0 no effect to 100 complete control

Cc1ccc2sc(Br)c(-c3c(O)c(C)nn(C)c3=O)c2c1 [Compound 79]
40: Plant response rating, Surinam Grass [4, 28] | Plant response rating, Crabgrass, Brazil [12, 24]
60: Plant response rating, Waterhemp_RES1 [2, 17] | Plant response rating, Surinam Grass [4, 18] | Plant response rating, Sandbur [9, 26] | Plant response rating, Panicum, Fall [10, 20] | Plant response rating, Panicum, Fall [10, 22] | Plant response rating, Field Bindweed [11, 26] | Plant response rating, Goosegrass [13, 17] | Plant response rating, Goosegrass [13, 18] | Plant response rating, Waterhemp [14, 20] | Plant response rating, Foxtail, Giant [15, 28]
50: Plant response rating, Waterhemp_RES1 [2, 16] | Plant response rating, Surinam Grass [4, 17] | Plant response rating, Kochia (kochia (Kochia scoparia); [26]) | Plant response rating, Sandbur [9, 22] | Plant response rating, Goosegrass [13, 28] | Plant response rating, Waterhemp [14, 25]
25: Plant response rating, Crabgrass, Brazil [12, 22]
65: Plant response rating, Sandbur [9, 24] | Plant response rating, Goosegrass [13, 29]
0: Plant response rating, Crabgrass, Large [6, 17] | Plant response rating, Crabgrass, Large [6, 28]
100: Plant response rating, Horseweed [3, 21] | Plant response rating, Horseweed [3, 23] | Plant response rating, Horseweed [3, 26] | Plant response rating, Horseweed [3, 27] | Plant response rating, Beggarticks [5, 20] | Plant response rating, Beggarticks [5, 21] | Plant response rating, Beggarticks [5, 22] | Plant response rating, Beggarticks [5, 23] | Plant response rating, Beggarticks [5, 24] | Plant response rating, Beggarticks [5, 25] | Plant response rating, Beggarticks [5, 26] | Plant response rating, Beggarticks [5, 27] | Plant response rating, Kochia (kochia (Kochia scoparia); [23]) | Plant response rating, Kochia (kochia (Kochia scoparia); [27]) | Plant response rating, Nightshade [7, 17] | Plant response rating, Nightshade [7, 18] | Plant response rating, Nightshade [7, 29] | Plant response rating, Ragweed [8, 21] | Plant response rating, Ragweed [8, 23] | Plant response rating, Ragweed [8, 24] | Plant response rating, Ragweed [8, 26] | Plant response rating, Ragweed [8, 27] | Plant response rating, Field Bindweed [11, 23] | Plant response rating, Field Bindweed [11, 27] | Plant response rating, Crabgrass, Brazil [12, 27] | Plant response rating, Waterhemp [14, 21] | Plant response rating, Waterhemp [14, 23] | Plant response rating, Waterhemp [14, 27]
55: Plant response rating, Waterhemp_RES2 [1, 19] | Plant response rating, Panicum, Fall [10, 25]
95: Plant response rating, Horseweed [3, 20] | Plant response rating, Horseweed [3, 22] | Plant response rating, Ragweed [8, 22] | Plant response rating, Field Bindweed [11, 20] | Plant response rating, Field Bindweed [11, 22] | Plant response rating, Field Bindweed [11, 24]
30: Plant response rating, Crabgrass, Large [6, 29] | Plant response rating, Sandbur [9, 20] | Plant response rating, Crabgrass, Brazil [12, 21]
70: Plant response rating, Waterhemp_RES1 [2, 18] | Plant response rating, Kochia (kochia (Kochia scoparia); [21]) | Plant response rating, Kochia (kochia (Kochia scoparia); [25]) | Plant response rating, Sandbur [9, 21] | Plant response rating, Panicum, Fall [10, 21] | Plant response rating, Waterhemp [14, 22] | Plant response rating, Foxtail, Giant [15, 17]
98: Plant response rating, Kochia (kochia (Kochia scoparia); [24]) | Plant response rating, Ragweed [8, 20]
15: Plant response rating, Waterhemp_RES2 [1, 17] | Plant response rating, Waterhemp_RES2 [1, 18]
90: Plant response rating, Horseweed [3, 24] | Plant response rating, Horseweed [3, 25] | Plant response rating, Kochia (kochia (Kochia scoparia); [22]) | Plant response rating, Ragweed [8, 25] | Plant response rating, Panicum, Fall [10, 27] | Plant response rating, Field Bindweed [11, 21] | Plant response rating, Foxtail, Giant [15, 29]
20: Plant response rating, Waterhemp_RES2 [1, 16] | Plant response rating, Crabgrass, Large [6, 18] | Plant response rating, Sandbur [9, 25] | Plant response rating, Crabgrass, Brazil [12, 20] | Plant response rating, Crabgrass, Brazil [12, 25]
80: Plant response rating, Surinam Grass [4, 29] | Plant response rating, Kochia (kochia (Kochia scoparia); [20]) | Plant response rating, Nightshade [7, 28] | Plant response rating, Sandbur [9, 23] | Plant response rating, Panicum, Fall [10, 23] | Plant response rating, Panicum, Fall [10, 26] | Plant response rating, Field Bindweed [11, 25] | Plant response rating, Crabgrass, Brazil [12, 23] | Plant response rating, Waterhemp [14, 24]
75: Plant response rating, Waterhemp_RES1 [2, 19] | Plant response rating, Sandbur [9, 27] | Plant response rating, Panicum, Fall [10, 24] | Plant response rating, Waterhemp [14, 26]
85: Plant response rating, Foxtail, Giant [15, 18]
